Laboratory results from ChEMBL document CHEMBL3407349, “The discovery of Polo-like kinase 4 inhibitors: identification of (1R,2S).2-(3-((E).4-(((cis).2,6-dimethylmorpholino)methyl)styryl). 1H.indazol-6-yl)-5'-methoxyspiro[cyclopropane-1,3'-indolin]-2'-one (CFI-400945) as a potent, orally active antitumor agent” (J Med Chem, 2015).

Experiments:
MDA-MB-468 [1] = assay: Growth inhibition of human MDA-MB-468 cells after 5 days by SRB assay; assay type: functional; details: Homo sapiens, MDA-MB-468, 120 h
MCF7 = assay: Growth inhibition of human MCF7 cells after 5 days by SRB assay; assay type: functional; details: Homo sapiens, MCF7, 120 h
HCC1954 = assay: Growth inhibition of human HCC1954 cells after 5 days by SRB assay; assay type: functional; details: Homo sapiens, HCC1954, 120 h
MDA-MB-231 = assay: Growth inhibition of human MDA-MB-231 cells after 5 days by SRB assay; assay type: functional; details: Homo sapiens, MDA-MB-231, 120 h
[2] = Growth inhibition of human HMEC cells after 5 days by SRB assay; assay type: cell-based; details: HMEC cells
Cytochrome P450 1A2 = target: T1, Cytochrome P450 1A2 (Homo sapiens, UniProt P05177); assay: Inhibition of CYP1A2 (unknown origin) by fluorescence assay; assay type: ADME
T1 sequence (P05177 whole entry): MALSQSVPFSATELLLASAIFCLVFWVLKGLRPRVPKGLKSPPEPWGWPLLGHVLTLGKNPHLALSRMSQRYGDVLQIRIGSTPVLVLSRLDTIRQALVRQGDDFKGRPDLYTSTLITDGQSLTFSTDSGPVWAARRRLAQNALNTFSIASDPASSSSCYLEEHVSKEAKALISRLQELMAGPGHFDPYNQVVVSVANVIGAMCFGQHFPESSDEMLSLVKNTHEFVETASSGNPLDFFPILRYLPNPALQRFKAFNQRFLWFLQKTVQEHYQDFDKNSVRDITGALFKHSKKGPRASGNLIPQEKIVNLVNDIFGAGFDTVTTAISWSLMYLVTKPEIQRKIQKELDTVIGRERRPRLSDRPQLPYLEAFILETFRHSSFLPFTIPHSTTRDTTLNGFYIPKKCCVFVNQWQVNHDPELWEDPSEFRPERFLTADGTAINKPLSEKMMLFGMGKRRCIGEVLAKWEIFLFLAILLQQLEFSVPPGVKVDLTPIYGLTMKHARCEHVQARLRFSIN

Cytochrome P450 2D6 = Cytochrome P450 2D6 (Homo sapiens, UniProt P10635); assay: Inhibition of CYP2D6 (unknown origin) by fluorescence assay; assay type: ADME
Cytochrome P450 2C9 = Cytochrome P450 2C9 (Homo sapiens, UniProt P11712); assay: Inhibition of CYP2C9 (unknown origin) by fluorescence assay
Cytochrome P450 2C19 = Cytochrome P450 2C19 (Homo sapiens, UniProt P33261); assay: Inhibition of CYP2C19 (unknown origin) by fluorescence assay
[3] = Half life in mouse liver microsomes
[4] = Half life in rat liver microsomes
[5] = Half life in dog liver microsomes
[6] = Half life in human liver microsomes
[7] = Cmax in athymic CD1 nude mouse at 25 mg/kg, po by LC/MS/MS analysis; assay type: ADME, organism-based; set-up: dose 25 mg/kg, route oral; details: in vivo
[8] = AUC in athymic CD1 nude mouse at 25 mg/kg, po by LC/MS/MS analysis; assay type: ADME, organism-based; set-up: dose 25 mg/kg, route oral; details: plasma
Rattus norvegicus = assay: Clearance in Sprague-Dawley rat at 1 mg/kg, iv; assay type: ADME, organism-based; set-up: dose 1 mg/kg, route intravenous; details: in vivo
[9] = Half life in Sprague-Dawley rat at 1 mg/kg, iv; assay type: ADME, organism-based; set-up: dose 1 mg/kg, route intravenous; details: in vivo
[10] = AUC(infinity) in Sprague-Dawley rat at 1 mg/kg, iv; assay type: ADME, organism-based; set-up: time infinity, dose 1 mg/kg, route intravenous; details: plasma
[11] = AUC(infinity) in Sprague-Dawley rat at 5 mg/kg, po; assay type: ADME, organism-based; set-up: dose 5 mg/kg, route oral, time infinity; details: plasma
[12] = Oral bioavailability in Sprague-Dawley rat at 5 mg/kg; assay type: ADME, organism-based; details: in vivo
Canis familiaris = assay: Clearance in beagle dog at 1 mg/kg, iv; assay type: ADME, organism-based, Canis lupus familiaris; set-up: dose 1 mg/kg, route intravenous; details: in vivo
[13] = Half life in beagle dog at 1 mg/kg, iv; assay type: ADME, organism-based, Canis lupus familiaris; set-up: dose 1 mg/kg, route intravenous; details: in vivo
[14] = AUC(infinity) in beagle dog at 1 mg/kg, iv; assay type: ADME, organism-based, Canis lupus familiaris; set-up: time infinity, dose 1 mg/kg, route intravenous; details: plasma
[15] = AUC(infinity) in beagle dog at 5 mg/kg, po; assay type: ADME, organism-based, Canis lupus familiaris; set-up: time infinity, dose 5 mg/kg, route oral; details: plasma
[16] = Oral bioavailability in beagle dog at 5 mg/kg; assay type: ADME, organism-based, Canis lupus familiaris; details: in vivo
[17] = Growth inhibition of human SKBR3 cells after 5 days by SRB assay; assay type: functional; details: SK-BR-3, 120 h
[18] = Growth inhibition of human CAL51 cells after 5 days by SRB assay; assay type: functional; details: CAL-51, 120 h
[19] = Growth inhibition of human BT20 cells after 5 days by SRB assay; assay type: functional; details: BT-20, 120 h
A549 [20] = assay: Growth inhibition of human A549 cells after 5 days by SRB assay; assay type: functional; details: A549, 120 h
[21] = Growth inhibition of human OVCAR3 cells after 5 days by SRB assay; assay type: functional; details: OVCAR-3, 120 h
SW-620 = assay: Growth inhibition of human SW620 cells after 5 days by SRB assay; assay type: functional; details: SW-620, 120 h
[22] = Growth inhibition of human COLO205 cells after 5 days by SRB assay; assay type: functional; details: COLO 205, 120 h
[23] = Growth inhibition of human HCT116 cells after 5 days by SRB assay; assay type: functional; details: HCT-116, 120 h
Angiopoietin-1 receptor [24] = target: T2, Angiopoietin-1 receptor (Homo sapiens, UniProt Q02763); assay: Inhibition of TIE2 (unknown origin) by FRET analysis
Angiopoietin-1 receptor [25] = target: T2, Angiopoietin-1 receptor; assay: Inhibition of TIE2 (unknown origin) by cell-based assay
Mus musculus [26] = assay: Toxicity in CB-17 SCID mouse xenografted with human MDA-MB-468 cells assessed as mortality at 3 to 9.4 mg/kg, po qd administered for 21 days; assay type: organism-based; set-up: dose 3-9.4 mg/kg, route oral; details: in vivo, 504 h
Mus musculus [27] = assay: Toxicity in CB-17 SCID mouse xenografted with human MDA-MB-468 cells assessed as loss in body weight at 3 to 9.4 mg/kg, po qd administered for 21 days relative to control; assay type: organism-based; set-up: dose 3-9.4 mg/kg, route oral; details: in vivo, 504 h
MDA-MB-468 [28] = assay: Antitumor activity against human MDA-MB-468 cells xenografted in CB-17 SCID mouse assessed as tumor growth inhibition at 3 mg/kg, po qd administered for 21 days; assay type: functional; details: MDA-MB-468, 504 h, read-out: TGI
MDA-MB-468 [29] = assay: Antitumor activity against human MDA-MB-468 cells xenografted in CB-17 SCID mouse assessed as tumor growth inhibition at 9.4 mg/kg, po qd administered for 21 days; assay type: functional; details: MDA-MB-468, 504 h, read-out: TGI
[30] = Antitumor activity against human SW620 cells xenografted in CB-17 SCID mouse assessed as tumor growth inhibition at 3 mg/kg, po qd administered for 21 days; assay type: functional; details: SW-620, 504 h, read-out: TGI
[31] = Antitumor activity against human SW620 cells xenografted in CB-17 SCID mouse assessed as tumor growth inhibition at 9.4 mg/kg, po qd administered for 21 days; assay type: functional; details: SW-620, 504 h, read-out: TGI
A549 [32] = assay: Antitumor activity against human A549 cells xenografted in CB-17 SCID mouse assessed as tumor growth inhibition at 3 mg/kg, po qd administered for 21 days; assay type: functional; details: A549, 504 h, read-out: TGI
A549 [33] = assay: Antitumor activity against human A549 cells xenografted in CB-17 SCID mouse assessed as tumor growth inhibition at 9.4 mg/kg, po qd administered for 21 days; assay type: functional; details: A549, 504 h, read-out: TGI
[34] = Toxicity in po dosed athymic CD-1 nude mouse xenografted with human HCT116 cells administered qd 1-on/3-off schedule up to day 21; assay type: organism-based, HCT-116; details: CD-1 athymic nude, in vivo
[35] = Antitumor activity against human HCT116 cells xenografted in athymic CD-1 nude mouse assessed as tumor growth inhibition at MTD, po qd administered 1-on/3-off schedule up to day 21; assay type: functional, HCT-116
[36] = Antitumor activity against human HCT116 cells xenografted in athymic CD-1 nude mouse assessed as tumor growth inhibition at MTD, po qd administered 1-on/3-off schedule up to day 21 measured on day 35; assay type: functional, HCT-116
Cytochrome P450 3A4 [37] = target: T3, Cytochrome P450 3A4 (Homo sapiens, UniProt P08684); assay: Inhibition of CYP3A4 (unknown origin) using DBF as substrate by fluorescence assay
Cytochrome P450 3A4 [38] = target: T3, Cytochrome P450 3A4; assay: Inhibition of CYP3A4 (unknown origin) using BFC as substrate by fluorescence assay
Mus musculus [39] = assay: Toxicity in CB-17 SCID mouse xenografted with human A549 cells assessed as death at 9.4 mg/kg, po qd administered for 21 days; assay type: organism-based; set-up: dose 9.4 mg/kg, route oral; details: in vivo, 504 h

T3 sequence (P08684 whole entry): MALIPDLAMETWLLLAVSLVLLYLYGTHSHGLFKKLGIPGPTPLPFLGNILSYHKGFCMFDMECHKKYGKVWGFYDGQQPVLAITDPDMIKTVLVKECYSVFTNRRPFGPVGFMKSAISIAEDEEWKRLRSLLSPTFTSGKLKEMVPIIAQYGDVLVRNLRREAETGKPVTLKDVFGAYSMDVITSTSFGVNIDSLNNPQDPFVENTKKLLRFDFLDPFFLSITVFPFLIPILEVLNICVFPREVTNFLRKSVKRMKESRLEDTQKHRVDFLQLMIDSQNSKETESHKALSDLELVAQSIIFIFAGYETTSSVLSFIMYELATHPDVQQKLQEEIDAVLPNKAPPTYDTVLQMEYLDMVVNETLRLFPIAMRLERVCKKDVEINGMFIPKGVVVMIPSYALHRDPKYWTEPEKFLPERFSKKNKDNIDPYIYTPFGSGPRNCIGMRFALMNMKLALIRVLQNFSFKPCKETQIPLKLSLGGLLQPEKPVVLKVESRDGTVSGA
Chain of Cytochrome P450 2D6 (P10635 whole entry): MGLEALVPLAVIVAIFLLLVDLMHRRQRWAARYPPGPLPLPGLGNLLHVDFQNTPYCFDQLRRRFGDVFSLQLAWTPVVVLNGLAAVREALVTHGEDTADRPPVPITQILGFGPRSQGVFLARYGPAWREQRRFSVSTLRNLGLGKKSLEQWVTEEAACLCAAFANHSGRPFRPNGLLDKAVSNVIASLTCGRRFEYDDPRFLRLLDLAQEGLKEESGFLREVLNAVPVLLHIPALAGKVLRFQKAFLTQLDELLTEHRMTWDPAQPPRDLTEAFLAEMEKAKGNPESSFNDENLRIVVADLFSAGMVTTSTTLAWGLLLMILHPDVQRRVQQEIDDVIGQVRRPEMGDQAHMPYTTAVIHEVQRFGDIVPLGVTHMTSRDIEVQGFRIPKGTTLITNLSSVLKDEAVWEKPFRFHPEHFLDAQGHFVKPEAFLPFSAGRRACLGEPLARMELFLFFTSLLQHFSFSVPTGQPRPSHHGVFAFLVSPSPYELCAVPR
Chain of Cytochrome P450 2C19 (P33261 whole entry): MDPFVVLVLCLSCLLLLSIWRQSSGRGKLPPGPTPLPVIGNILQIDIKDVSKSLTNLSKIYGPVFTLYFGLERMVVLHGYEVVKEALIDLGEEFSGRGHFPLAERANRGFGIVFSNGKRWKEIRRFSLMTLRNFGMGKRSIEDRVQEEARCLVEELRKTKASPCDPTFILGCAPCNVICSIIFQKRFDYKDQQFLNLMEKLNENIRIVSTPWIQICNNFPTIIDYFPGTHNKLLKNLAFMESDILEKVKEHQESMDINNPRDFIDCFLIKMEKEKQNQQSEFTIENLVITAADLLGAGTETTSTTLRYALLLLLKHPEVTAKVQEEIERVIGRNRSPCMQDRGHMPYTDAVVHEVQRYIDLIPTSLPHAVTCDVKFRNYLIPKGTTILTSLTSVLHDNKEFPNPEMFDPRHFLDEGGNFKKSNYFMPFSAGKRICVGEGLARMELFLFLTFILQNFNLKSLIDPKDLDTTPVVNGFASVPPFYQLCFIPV
T2 sequence (Q02763 whole entry): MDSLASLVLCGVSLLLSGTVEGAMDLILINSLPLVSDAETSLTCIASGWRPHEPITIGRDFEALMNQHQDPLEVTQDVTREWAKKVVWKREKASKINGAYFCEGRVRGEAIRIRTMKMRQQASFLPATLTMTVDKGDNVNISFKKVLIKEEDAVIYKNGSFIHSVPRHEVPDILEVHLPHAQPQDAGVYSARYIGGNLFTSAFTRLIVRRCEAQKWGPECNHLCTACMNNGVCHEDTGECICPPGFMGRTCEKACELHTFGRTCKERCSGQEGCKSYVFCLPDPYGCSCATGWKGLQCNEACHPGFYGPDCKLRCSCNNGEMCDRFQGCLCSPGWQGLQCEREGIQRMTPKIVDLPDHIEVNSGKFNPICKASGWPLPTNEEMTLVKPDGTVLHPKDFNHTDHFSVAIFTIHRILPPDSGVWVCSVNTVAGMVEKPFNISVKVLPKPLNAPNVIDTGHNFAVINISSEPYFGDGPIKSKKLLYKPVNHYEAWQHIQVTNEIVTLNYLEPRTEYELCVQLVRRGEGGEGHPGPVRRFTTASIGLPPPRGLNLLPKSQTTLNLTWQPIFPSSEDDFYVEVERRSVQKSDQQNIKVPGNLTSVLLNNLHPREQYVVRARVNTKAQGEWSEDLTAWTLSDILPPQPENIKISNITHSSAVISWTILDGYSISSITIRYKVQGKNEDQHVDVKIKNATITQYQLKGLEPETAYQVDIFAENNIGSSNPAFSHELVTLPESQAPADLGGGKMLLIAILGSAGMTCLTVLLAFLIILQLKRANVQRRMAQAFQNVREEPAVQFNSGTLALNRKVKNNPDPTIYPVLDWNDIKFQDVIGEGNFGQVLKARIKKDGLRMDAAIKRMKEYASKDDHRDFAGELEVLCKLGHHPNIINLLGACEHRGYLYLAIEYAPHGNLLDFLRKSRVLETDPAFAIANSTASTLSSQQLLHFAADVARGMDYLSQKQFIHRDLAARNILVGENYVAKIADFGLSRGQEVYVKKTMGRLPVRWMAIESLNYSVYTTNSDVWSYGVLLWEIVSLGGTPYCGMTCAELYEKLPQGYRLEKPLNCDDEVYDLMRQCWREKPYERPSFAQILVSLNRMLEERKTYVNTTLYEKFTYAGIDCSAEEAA
Chain of Cytochrome P450 2C9 (P11712 whole entry): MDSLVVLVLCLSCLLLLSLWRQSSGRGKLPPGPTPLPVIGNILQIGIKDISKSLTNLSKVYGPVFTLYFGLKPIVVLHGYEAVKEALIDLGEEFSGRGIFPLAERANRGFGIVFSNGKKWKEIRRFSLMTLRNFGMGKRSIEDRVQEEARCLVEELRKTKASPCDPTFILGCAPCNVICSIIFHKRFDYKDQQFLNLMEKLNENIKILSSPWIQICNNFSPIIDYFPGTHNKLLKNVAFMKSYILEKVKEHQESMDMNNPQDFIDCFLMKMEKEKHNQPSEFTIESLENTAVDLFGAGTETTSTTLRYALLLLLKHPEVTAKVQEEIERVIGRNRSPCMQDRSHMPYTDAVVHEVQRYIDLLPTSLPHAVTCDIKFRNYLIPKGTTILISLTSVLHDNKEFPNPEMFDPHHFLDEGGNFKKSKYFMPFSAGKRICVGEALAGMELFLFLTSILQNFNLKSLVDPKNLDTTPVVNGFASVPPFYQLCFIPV

## COc1ccc2c(c1)[C@]1(C[C@H]1c1ccc3c(/C=C/c4ccc(CN5C[C@@H](C)O[C@@H](C)C5)cc4)n[nH]c3c1)C(=O)N2 [OCIFISERTIB]
MDA-MB-468 [1]
  GI50: 6 nM
MCF7
  GI50: 8 nM
HCC1954
  GI50: 5 nM
MDA-MB-231
  GI50: 8.6 µM
[2]
  GI50 at 120 h: 9 µM
Cytochrome P450 1A2
  inhibition (INH): Not Active
Cytochrome P450 2D6
  inhibition (INH): Not Active
Cytochrome P450 2C9
  IC50: 940 nM
Cytochrome P450 2C19
  IC50: 1400 nM
[3]; liver microsomes
  half-life: 24 min
[4]; liver microsomes
  half-life: 53 min
[5]; liver microsomes
  half-life: 43 min
[6]; liver microsomes
  half-life: > 60 min
[7]
  Cmax: 2200 ng/mL
[8]
  AUC: 9800 ng·h/mL
Rattus norvegicus
  clearance: 1.9 L/h/kg
[9]
  half-life: 120 min
[10]
  AUC(0-inf): 534 ng·h/mL
[11]
  AUC(0-inf): 767 ng·h/mL
[12]
  bioavailability: 21%
Canis familiaris
  clearance: 0.96 L/h/kg
[13]
  half-life: 126 min
[14]
  AUC(0-inf): 1050 ng·h/mL
[15]
  AUC(0-inf): 3460 ng·h/mL
[16]
  bioavailability: 66%
[17]
  GI50: 5.3 µM
[18]
  GI50: 260 nM
[19]
  GI50: 58 nM
A549 [20]
  GI50: 5 nM
[21]
  GI50: 18 nM
SW-620
  GI50: 380 nM
[22]
  GI50: 17 nM
[23]
  GI50: 4 nM
Angiopoietin-1 receptor [24]
  IC50: 22 nM
Angiopoietin-1 receptor [25]
  EC50: 117 nM
Mus musculus [26]
  Activity: Non-toxic
Mus musculus [27]
  Activity: > 20%
MDA-MB-468 [28]
  inhibition in vivo at 3 mg/kg: 57%
MDA-MB-468 [29]
  inhibition in vivo at 9.4 mg/kg: 77%
[30]
  inhibition in vivo at 3 mg/kg: 7%
[31]
  inhibition in vivo at 9.4 mg/kg: 86%
A549 [32]
  inhibition in vivo at 3 mg/kg: 32%
A549 [33]
  inhibition in vivo at 9.4 mg/kg: 70%
[34]
  MTD at 21 days: 39 mg/kg
[35]
  TGI: 98%
[36]
  TGI: 93%

## COc1ccc2c(c1)[C@]1(C[C@H]1c1ccc3c(/C=C/c4ccc(CN5CCOCC5)cc4)n[nH]c3c1)C(=O)N2C
MDA-MB-468 [1]
  GI50: < 10 nM
MCF7
  GI50: < 10 nM
HCC1954
  GI50: < 10 nM
MDA-MB-231
  GI50: 20 µM
[2]
  GI50 at 120 h: > 30 µM
Cytochrome P450 1A2
  inhibition (INH): Not Active
Cytochrome P450 2D6
  inhibition (INH): Not Active
Cytochrome P450 2C9
  IC50: 1000 nM
Cytochrome P450 2C19
  IC50: 1000 nM
Cytochrome P450 3A4 [37]
  IC50: 6 µM
Cytochrome P450 3A4 [38]
  IC50: 20 µM
[3]; microsomes
  half-life: 24 min
[4]; microsomes
  half-life: 6.4 min
[5]; microsomes
  half-life: 13 min
[6]; microsomes
  half-life: 37 min
[7]
  Cmax: 5900 ng/mL
[8]
  AUC: 17000 ng·h/mL
[9]
  half-life: 78 min
[10]
  AUC(0-inf): 553 ng·h/mL
[11]
  AUC(0-inf): 688 ng·h/mL
[12]
  bioavailability: 25%
[13]
  half-life: 180 min
[14]
  AUC(0-inf): 648 ng·h/mL
[15]
  AUC(0-inf): 1030 ng·h/mL
[16]
  bioavailability: 32%
[17]
  GI50: 6.5 µM
[18]
  GI50: 110 nM
[19]
  GI50: 55 nM
A549 [20]
  GI50: 4 nM
[21]
  GI50: 7 nM
SW-620
  GI50: 600 nM
[22]
  GI50: 7 nM
[23]
  GI50: 5 nM
MDA-MB-468 [28]
  inhibition in vivo at 3 mg/kg: 61%
MDA-MB-468 [29]
  inhibition in vivo at 9.4 mg/kg: 96%
[30]
  inhibition in vivo at 3 mg/kg: 47%
[31]
  inhibition in vivo at 9.4 mg/kg: 77%
A549 [32]
  inhibition in vivo at 3 mg/kg: 46%
Mus musculus [39]
  Activity: Toxic
[34]
  MTD at 21 days: 39 mg/kg
[35]
  TGI: 90%
